Results on 22 compounds are retold here after patent US12275720B2, “Small molecule inhibitors of galectin-3” (BRISTOL MYERS SQUIBB, priority 2020, dated 2025).

The target of assay [1] is His-tagged recombinant human Gal-3 (hGal-3) (Homo sapiens, UniProt P17931). Description: Gal 3 HTRF Assay. Particulars: HTRF assay (default), 15 nM hGal-3, 15 nM B-ASF; read-out: hGal3 IC50 (HTRF). The format is binding. On the procedure:
• ASSAY BUFFER Composition: 25 mM HEPES, 100 mM NaCl, 0.005% Tween 20, 0.05% BSA prepared in sterile water (all reagents from Sigma). Controls: • Positive Control: 100% DMSO (1 μL)+His-tagged hGal-3 (20 μL)+B-ASF (20 μL)+Anti-His Terbium Antibody (5 μL)+Strep d2 Antibody (5 μL). • Negative Control: 100% DMSO (1 μL)+His-tagged hGal-3(20 μL)+Anti His Terbium Antibody (5 μL)+Strep d2 Antibody (5 μL). Stocks Preparation:
PROTOCOL: The Gal-3 assays were performed in 384 white Opti plates in three replicates at room temperature with gentle shaking at 250-300 rpm From the original stocks, […] working stock concentrations of His-tagged recombinant human Gal-3 (hGal-3) and that of B-ASF were prepared. From the working stock, 20 μL of hGal-3 (15 nM) and 20 μL B-ASF (15 nM) were added to the plates. In Negative Control, only hGal-3 was added. A concentration range of 50× working stocks were prepared for the compounds in 100% DMSO. Aliquots of 1 μL of the compounds were added to the wells and pre-incubated with 20 μL hGal-3 per well for 30 minutes Then 20 μL B-ASF were added and incubated for another 1 hour. To detect the signal, 5 μL (final conc. of 1.0 nM) terbium labelled Anti-His antibody was added and incubated for 30 min followed by adding 5 μL (final conc. of 20 nM) Streptavidin d2 and incubation for another 1 hour. The assay signal was detected using HTRF screen protocol (Excitation wavelength=340 nm, emission wavelength=615 nm/665 nm) on Envision 2104 Multilabel Reader. Data analysed using Toolset and Curve Master. Results are reported in the experimental section (IC50 in μM). All IC50 reported were generated using the HTRF assay except when specifically indicated.
(In general: In TR-FRET formats the signal depends on donor and acceptor labels being close together.)

In assay [2] the target is T1, hGalectin-3 (Homo sapiens, UniProt P17931).
T1 construct: made in house
In words: Gal-3 ELISA Assay (hGalectin-3 neutralization binding assay). Particulars: ASF-coated plate, 15 nM hGalectin-3, read-out: hGal3 IC50 (ELISA).

Chain of His-tagged recombinant human Gal-3 (hGal-3) (P17931 whole entry): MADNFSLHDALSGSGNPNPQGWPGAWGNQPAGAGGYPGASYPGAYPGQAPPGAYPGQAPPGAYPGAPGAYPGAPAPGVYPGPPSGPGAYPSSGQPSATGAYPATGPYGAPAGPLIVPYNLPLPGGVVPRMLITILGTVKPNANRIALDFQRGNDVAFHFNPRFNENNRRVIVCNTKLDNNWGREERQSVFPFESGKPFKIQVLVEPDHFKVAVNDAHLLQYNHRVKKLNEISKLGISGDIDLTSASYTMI
T1 sequence (P17931 whole entry): as above

On to `CO[C@@H]1[C@@H](n2cc(-c3cccc(F)c3)nn2)[C@@H](O)[C@@H](CO)O[C@H]1C(=O)N[C@@H]1CCC[C@H](n2cc3c(F)cccc3n2)[C@H]1O` (single isomer, unassigned) [Example 8], for which the IC50 (commonly the concentration that inhibits the measured activity by half) in assay [1] was 570 nM.
With `CO[C@@H]1[C@@H](n2cc(-c3cccc(F)c3)nn2)[C@@H](O)[C@@H](CO)O[C@H]1C(=O)N(C)[C@H]1COC[C@@H](n2cc(-c3cccc(F)c3)nn2)[C@@H]1O` (single isomer, unassigned) [Example 21], in assay [1], the IC50 is 30 nM.
The same measure, in the same setting: the result for `CO[C@@H]1[C@@H](n2cc(-c3cccc(F)c3)nn2)[C@@H](O)[C@@H](CO)O[C@H]1C(=O)N(C)[C@H]1CN(C)C[C@@H](n2cc(-c3cccc(F)c3)nn2)[C@@H]1O` [Example 19, (2R,3R,4S,5R,6R)-4-(4-(3-fluorophenyl)-1H-1,2,3-triazol-1-yl)-N-((3S,4R,5R)-5-(4-(3-fluorophenyl)-1H-1,2,3-triazol-1-yl)-4-hydroxy-1-methylpiperidin-3-yl)-5-hydroxy-6-(hydroxymethyl)-3-methoxy-N-methyltetrahydro-2H-pyran-2-carboxamide] reads 20 nM.
Regarding `CO[C@@H]1[C@@H](n2cc(-c3cccc(F)c3)nn2)[C@@H](O)[C@@H](CO)O[C@H]1C(=O)N(C)[C@H]1COC[C@@H](n2ncc3cc(F)cnc32)[C@@H]1O` [Example 22a, (2R,3R,4S,5R,6R)-N-((3S,4R,5R)-5-(5-fluoro-1H-pyrazolo[3,4-b]pyridin-1-yl)-4-hydroxytetrahydro-2H-pyran-3-yl)-4-(4-(3-fluorophenyl)-1H-1,2,3-triazol-1-yl)-5-hydroxy-6-(hydroxymethyl)-3-methoxy-N-methyltetrahydro-2H-pyran-2-carboxamide], in assay [1], the IC50 is greater than 10000 nM.
On to “(2R,3R,4S,5R,6R)-4-(4-(3-fluorophenyl)-1H-1,2,3-triazol-1-yl)-N-((1R,2S,3S)-3-(5-(3-fluorophenyl)-1H-1,2,3-triazol-1-yl)-2-hydroxycyclohexyl)-5-hydroxy-6-(hydroxymethyl)-3-methoxytetrahydro-2H-pyran-2-carboxamide [Example 6a]”, for which the IC50 in assay [1] stood at 27000 nM.
Still for that read-out and setting: the result for “(2R,3R,4S,5R,6R)-4-(4-(3-fluorophenyl)-1H-1,2,3-triazol-1-yl)-N-((1R,2S,3S)-3-(5-(3-fluorophenyl)-1H-1,2,3-triazol-1-yl)-2-hydroxycyclohexyl)-5-hydroxy-6-(hydroxymethyl)-3-methoxytetrahydro-2H-pyran-2-carboxamide [Example 6b]” reads 900 nM; that for “(2R,3R,4S,5R,6R)-4-(4-(3-fluorophenyl)-1H-1,2,3-triazol-1-yl)-N-((1S,2R,3R)-3-(3-(3-fluorophenyl)-1H-1,2,4-triazol-1-yl)-2-hydroxycyclohexyl)-5-hydroxy-6-(hydroxymethyl)-3-methoxytetrahydro-2H-pyran-2-carboxamide [Example 9a]”, 500 nM.
“(2R,3R,4S,5R,6R)-4-(4-(3-fluorophenyl)-1H-1,2,3-triazol-1-yl)-N-((1S,2R,3R)-3-(3-(3-fluorophenyl)-1H-1,2,4-triazol-1-yl)-2-hydroxycyclohexyl)-5-hydroxy-6-(hydroxymethyl)-3-methoxytetrahydro-2H-pyran-2-carboxamide [Example 9b]”: the half-inhibitory concentration (IC50) in assay [1] is greater than 100000 nM.
Same read-out and setting: as for “(2R,3R,4S,5R,6R)-4-(4-(3-fluorophenyl)-1H-1,2,3-triazol-1-yl)-N-((1S,2R,3R)-3-(4-(3-fluorophenyl)-1H-1,2,3-triazol-1-yl)-2-hydroxycyclohexyl)-5-hydroxy-6-(hydroxymethyl)-3-methoxy-N-methyltetrahydro-2H-pyran-2-carboxamide [Example 10a]”, the figure is 5500 nM.
Still for that read-out and setting: as for “(2R,3R,4S,5R,6R)-4-(4-(3-fluorophenyl)-1H-1,2,3-triazol-1-yl)-N-((1S,2R,3R)-3-(4-(3-fluorophenyl)-1H-1,2,3-triazol-1-yl)-2-hydroxycyclohexyl)-5-hydroxy-6-(hydroxymethyl)-3-methoxy-N-methyltetrahydro-2H-pyran-2-carboxamide [Example 10b]”, the figure is 91 nM.
With “(2R,3R,4S,5R,6R)-4-(4-(3-fluorophenyl)-1H-1,2,3-triazol-1-yl)-N-((3R,4S,5S)-5-(4-(3-fluorophenyl)-1H-1,2,3-triazol-1-yl)-4-hydroxypiperidin-3-yl)-3,5-dihydroxy-6-(hydroxymethyl)-N-methyltetrahydro-2H-pyran-2-carboxamide [Example 18a]”, the IC50 in assay [1] is 1800 nM.
Regarding “(2R,3R,4S,5R,6R)-4-(4-(3-fluorophenyl)-1H-1,2,3-triazol-1-yl)-N-((3R,4S,5S)-5-(4-(3-fluorophenyl)-1H-1,2,3-triazol-1-yl)-4-hydroxypiperidin-3-yl)-3,5-dihydroxy-6-(hydroxymethyl)-N-methyltetrahydro-2H-pyran-2-carboxamide [Example 18b]”, in assay [1], the IC50 came to 50 nM.
As to “(2R,3R,4S,5R,6R)-4-(4-(3-fluorophenyl)-1H-1,2,3-triazol-1-yl)-N-((3R,4S,5S)-5-(4-(3-fluorophenyl)-1H-1,2,3-triazol-1-yl)-4-hydroxypiperidin-3-yl)-5-hydroxy-6-(hydroxymethyl)-3-methoxy-N-methyltetrahydro-2H-pyran-2-carboxamide [Example 16a]”, in assay [1], the IC50 was determined as 3500 nM.
Same read-out and setting: the result for “(2R,3R,4S,5R,6R)-4-(4-(3-fluorophenyl)-1H-1,2,3-triazol-1-yl)-N-((3R,4S,5S)-5-(4-(3-fluorophenyl)-1H-1,2,3-triazol-1-yl)-4-hydroxypiperidin-3-yl)-5-hydroxy-6-(hydroxymethyl)-3-methoxy-N-methyltetrahydro-2H-pyran-2-carboxamide [Example 16b]” reads 44 nM; that for “(2R,3R,4S,5R,6R)-4-(4-(3-fluorophenyl)-1H-1,2,3-triazol-1-yl)-N-((3R,4S,5S)-5-(4-(3-fluorophenyl)-1H-1,2,3-triazol-1-yl)-4-hydroxytetrahydro-2H-pyran-3-yl)-5-hydroxy-6-(hydroxymethyl)-3-methoxytetrahydro-2H-pyran-2-carboxamide [Example 20a]”, 36000 nM; that for “(2R,3R,4S,5R,6R)-4-(4-(3-fluorophenyl)-1H-1,2,3-triazol-1-yl)-N-((3R,4S,5S)-5-(4-(3-fluorophenyl)-1H-1,2,3-triazol-1-yl)-4-hydroxytetrahydro-2H-pyran-3-yl)-5-hydroxy-6-(hydroxymethyl)-3-methoxytetrahydro-2H-pyran-2-carboxamide [Example 20b]”, 90 nM.
With “(2R,3R,4S,5R,6R)-N-((1R,2S,3S)-3-(4-fluoro-1H-indazol-1-yl)-2-hydroxycyclohexyl)-4-(4-(3-fluorophenyl)-1H-1,2,3-triazol-1-yl)-5-hydroxy-6-(hydroxymethyl)-3-methoxytetrahydro-2H-pyran-2-carboxamide [Example 7a]”, the IC50 in assay [1] came out at 640 nM.
Regarding “(2R,3R,4S,5R,6R)-N-((1R,2S,3S)-3-(4-fluoro-1H-indazol-1-yl)-2-hydroxycyclohexyl)-4-(4-(3-fluorophenyl)-1H-1,2,3-triazol-1-yl)-5-hydroxy-6-(hydroxymethyl)-3-methoxytetrahydro-2H-pyran-2-carboxamide [Example 7b]”, in assay [1], the IC50 was 23000 nM.
With “(2R,4R,5R,6R)-4-(4-(3-fluorophenyl)-1H-1,2,3-triazol-1-yl)-N-((3R,4S,5S)-5-(4-(3-fluorophenyl)-1H-1,2,3-triazol-1-yl)-4-hydroxypiperidin-3-yl)-5-hydroxy-6-(hydroxymethyl)-N-methyltetrahydro-2H-pyran-2-carboxamide [Example 17a]”, in assay [1], the IC50 came out at 5200 nM.
Regarding “(2R,4R,5R,6R)-4-(4-(3-fluorophenyl)-1H-1,2,3-triazol-1-yl)-N-((3R,4S,5S)-5-(4-(3-fluorophenyl)-1H-1,2,3-triazol-1-yl)-4-hydroxypiperidin-3-yl)-5-hydroxy-6-(hydroxymethyl)-N-methyltetrahydro-2H-pyran-2-carboxamide [Example 17b]”, in assay [1], the IC50 amounted to 130 nM.
On to “(2R, 3R, 4S, 5R, 6R)-4-(4-(3-fluorophenyl)-1H-1,2,3-triazol-1-yl)-N-((1S,2R,3R)-3-(4-(3-fluorophenyl)-1H-1,2,3-triazol-1-yl)-2-hydroxycyclohexyl)-5-hydroxy-6-(hydroxymethyl)-3-methoxytetrahydro-2H-pyran-2-carboxamide [Example 1a]”, for which the IC50 in assay [1] came to 290 nM; in assay [2], 700 nM.
Take “(2R, 3R, 4S, 5R, 6R)-4-(4-(3-fluorophenyl)-1H-1,2,3-triazol-1-yl)-N-((1S,2R,3R)-3-(4-(3-fluorophenyl)-1H-1,2,3-triazol-1-yl)-2-hydroxycyclohexyl)-5-hydroxy-6-(hydroxymethyl)-3-methoxytetrahydro-2H-pyran-2-carboxamide [Example 1b]”: the IC50 in assay [2] came out at 16000 nM.
